This is an account of results in patent publication US20230040770A1, “HETEROCYCLIC COMPOUND AND USE THEREOF” (TAKEDA PHARMACEUTICAL COMPANY LIMITED, priority 2019, published 2023).

The assay deals with T1, human orexin type 2 receptor (Homo sapiens, UniProt O43614).
T1 construct: expressed in transfected cells
T1 sequence (O43614 1-444): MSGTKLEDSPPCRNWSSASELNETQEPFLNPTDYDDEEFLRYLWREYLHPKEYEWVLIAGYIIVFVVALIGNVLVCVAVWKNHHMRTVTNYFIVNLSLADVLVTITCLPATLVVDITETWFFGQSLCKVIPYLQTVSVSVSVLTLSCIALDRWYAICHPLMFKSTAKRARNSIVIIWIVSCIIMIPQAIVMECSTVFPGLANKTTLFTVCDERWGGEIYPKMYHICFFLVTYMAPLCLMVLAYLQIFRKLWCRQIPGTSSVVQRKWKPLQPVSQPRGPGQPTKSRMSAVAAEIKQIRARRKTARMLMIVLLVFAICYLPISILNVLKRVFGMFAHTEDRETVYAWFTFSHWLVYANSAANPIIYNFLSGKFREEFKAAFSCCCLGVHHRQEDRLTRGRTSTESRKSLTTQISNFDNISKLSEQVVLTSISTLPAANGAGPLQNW
The experiment in a line: Measurement of orexin type 2 receptor agonist activity (calcium indicator fluorescence, CHO cells forcibly expressing human OX2 receptor). It counts as cell-based. The conditions noted are these: compound at 3 μM; 0% = DMSO, 100% = orexin A (human) 10 nM. Put shortly: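 CHO-dhfr cells stably expressing human OX2R, loaded with Fluo-4 AM (30 min 37 °C, then 30 min RT), then given test compound. Calcium fluorescence read by FDSS over ~2 min. Activity (%) scaled from DMSO (0%) to 10 nM final orexin A (100%).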
In the case of `CCS(=O)(=O)N[C@@H]1[C@H](Cc2cccc(-c3ccc(F)c(F)c3F)c2F)N(C(=O)C2CCO2)CC1(F)F` (stereo partly drawn) [Example 470, N-{(2S,3R)-4,4-difluoro-1-(oxetane-2-carbonyl)-2-[(2,2′,3′,4′-tetrafluoro[1,1′-biphenyl]-3-yl)methyl]pyrrolidin-3-yl}ethanesulfonamide], the “OX2R agonist activity (3 μM, %)” value is 103%.

With `Cc1cccc(-c2cccc(C[C@H]3[C@@H](NS(=O)(=O)C4CC4)C(F)(F)CN3C(=O)N(C)C)c2F)c1` [Example 425, (2S,3R)-3-[(cyclopropanesulfonyl)amino]-4,4-difluoro-2-[(2-fluoro-3′-methyl[1,1′-biphenyl]-3-yl)methyl]-N,N-dimethylpyrrolidine-1-carboxamide], the “OX2R agonist activity (3 μM, %)” value is recorded as 95%. The figure for `Cc1cccc(-c2cccc(C[C@H]3[C@@H](NS(=O)(=O)N(C)C)C(F)(F)CN3C(=O)N(C)C)c2F)c1F` [Example 531, (2S,3R)-2-[(2,2′-difluoro-3′-methyl[1,1′-biphenyl]-3-yl)methyl]-3-[(dimethylsulfamoyl)amino]-4,4-difluoro-N,N-dimethylpyrrolidine-1-carboxamide] is 95%.

For the compound `CC(C)C(=O)N1CC(F)(F)[C@H](NS(C)(=O)=O)[C@@H]1Cc1cccc(-c2cc(F)cc(F)c2)c1` [Example 35, N-[(2S,3R)-2-[(3′,5′-difluoro[1,1′-biphenyl]-3-yl)methyl]-4,4-difluoro-1-(2-methylpropanoyl)pyrrolidin-3-yl]methanesulfonamide], the “OX2R agonist activity (3 μM, %)” value turned out to be 96%.

With `CCS(=O)(=O)N[C@@H]1[C@H](Cc2cccc(-c3cc(F)c(F)cc3F)c2F)N(C(=O)C2CCO2)CC1(F)F` (stereo partly drawn) [Example 477, N-{(2S,3R)-4,4-difluoro-1-(oxetane-2-carbonyl)-2-[(2,2′,4′,5′-tetrafluoro[1,1′-biphenyl]-3-yl)methyl]pyrrolidin-3-yl}ethanesulfonamide], the “OX2R agonist activity (3 μM, %)” value is 96%.

For `O=C(C1CCO1)N1C[C@H](F)[C@H](NS(=O)(=O)C2CC2)[C@@H]1Cc1cccc(-c2cccc(F)c2F)c1F` (stereo partly drawn) [Example 494, N-{(2S,3R,4S)-4-fluoro-1-(oxetane-2-carbonyl)-2-[(2,2′,3′-trifluoro[1,1′-biphenyl]-3-yl)methyl]pyrrolidin-3-yl}cyclopropanesulfonamide], the “OX2R agonist activity (3 μM, %)” value was determined as 96%. Take `CCS(=O)(=O)N[C@@H]1[C@H](Cc2cccc(-c3cc(Cl)ccc3F)c2F)N(C(=O)C2CC2)CC1(F)F` [Example 251, N-[(2S,3R)-2-[(5′-chloro-2,2′-difluoro[1,1′-biphenyl]-3-yl)methyl]-1-(cyclopropanecarbonyl)-4,4-difluoropyrrolidin-3-yl]ethanesulfonamide]: the “OX2R agonist activity (3 μM, %)” value stood at 91%. On to `CCS(=O)(=O)N[C@@H]1[C@H](Cc2cccc(-c3cccc(C(F)F)c3)c2F)N(C(=O)C2CC2)CC1(F)F` [Example 508, N-[(2S,3R)-1-(cyclopropanecarbonyl)-2-{[3′-(difluoromethyl)-2-fluoro[1,1′-biphenyl]-3-yl]methyl}-4,4-difluoropyrrolidin-3-yl]ethanesulfonamide], for which the “OX2R agonist activity (3 μM, %)” value turned out to be 96%. Consider `Cc1cccc(-c2cccc(C[C@H]3[C@@H](NS(=O)(=O)C4CC4)C(F)(F)CN3C(=O)C3CCO3)c2F)c1` (stereo partly drawn) [Example 428, N-[(2S,3R)-4,4-difluoro-2-[(2-fluoro-3′-methyl[1,1′-biphenyl]-3-yl)methyl]-1-(oxetane-2-carbonyl)pyrrolidin-3-yl]cyclopropanesulfonamide], for which the “OX2R agonist activity (3 μM, %)” value is recorded as 100%.

In the case of `CS(=O)(=O)N[C@@H]1[C@H](Cc2cccc(-c3cccc(F)c3F)c2F)N(C(=O)C2CC(F)C2)CC1(F)F` (stereo partly drawn) [Example 435, N-{(2S,3R)-4,4-difluoro-1-(3-fluorocyclobutane-1-carbonyl)-2-[(2,2′,3′-trifluoro[1,1′-biphenyl]-3-yl)methyl]pyrrolidin-3-yl}methanesulfonamide], the “OX2R agonist activity (3 μM, %)” value came out at 88%.

As for `CCS(=O)(=O)N[C@@H]1[C@H](Cc2cccc(-c3cc(C)cc(F)c3)c2F)N(C(=O)N(C)C)CC1(F)F` [Example 447, (2S,3R)-2-[(2,3′-difluoro-5′-methyl[1,1′-biphenyl]-3-yl)methyl]-3-[(ethanesulfonyl)amino]-4,4-difluoro-N,N-dimethylpyrrolidine-1-carboxamide], the “OX2R agonist activity (3 μM, %)” value is 95%. For the compound `CCS(=O)(=O)N[C@H]1[C@@H](F)CN(C(=O)C2CC2)[C@H]1Cc1cccc(-c2cc(F)cc(Cl)c2)c1F` [Example 517, N-[(2S,3R,4S)-2-[(3′-chloro-2,5′-difluoro[1,1′-biphenyl]-3-yl)methyl]-1-(cyclopropanecarbonyl)-4-fluoropyrrolidin-3-yl]ethanesulfonamide], the “OX2R agonist activity (3 μM, %)” value is reported as 100%. Then `CCS(=O)(=O)N[C@H]1[C@@H](F)CN(C(=O)C23CC(C2)C3)[C@H]1Cc1cccc(-c2cc(F)cc(F)c2)c1F` [Example 365, N-{(2S,3R,4S)-1-(bicyclo[1.1.1]pentane-1-carbonyl)-4-fluoro-2-[(2,3′,5′-trifluoro[1,1′-biphenyl]-3-yl)methyl]pyrrolidin-3-yl}ethanesulfonamide], with 93%; and `CS(=O)(=O)N[C@H]1[C@@H](F)CN(C(=O)C23CC(C2)C3)[C@H]1Cc1cccc(-c2cccc(F)c2)c1F` [Example 231, N-{(2S,3R,4S)-1-(bicyclo[1.1.1]pentane-1-carbonyl)-2-[(2,3′-difluoro[1,1′-biphenyl]-3-yl)methyl]-4-fluoropyrrolidin-3-yl}methanesulfonamide], with 95%; and `CCS(=O)(=O)N[C@H]1[C@@H](F)CN(C(=O)C2CCO2)[C@H]1Cc1cccc(-c2cccc(F)c2)c1F` (stereo partly drawn) [Example 217, N-[(2S,3R,4S)-2-[(2,3′-difluoro[1,1′-biphenyl]-3-yl)methyl]-4-fluoro-1-(oxetane-2-carbonyl)pyrrolidin-3-yl]ethanesulfonamide], with 96%. Regarding `CS(=O)(=O)N[C@@H]1[C@H](Cc2cccc(-c3cccc(F)c3)c2F)N(C(=O)C2(O)CCC2)CC1(F)F` [Example 13, N-[(2S,3R)-2-[(2,3′-difluoro[1,1′-biphenyl]-3-yl)methyl]-4,4-difluoro-1-(1-hydroxycyclobutane-1-carbonyl)pyrrolidin-3-yl]methanesulfonamide], the “OX2R agonist activity (3 μM, %)” value stood at 93%.

`CC(C)C(=O)N1CC(F)(F)[C@H](NS(=O)(=O)C2CC2)[C@@H]1Cc1cccc(-c2cccc(F)c2)c1F` [Example 163, N-[(2S,3R)-2-[(2,3′-difluoro[1,1′-biphenyl]-3-yl)methyl]-4,4-difluoro-1-(2-methylpropanoyl)pyrrolidin-3-yl]cyclopropanesulfonamide]: the “OX2R agonist activity (3 μM, %)” value was determined as 105%. For the compound `CCS(=O)(=O)N[C@H]1[C@@H](F)CN(C(=O)[C@H]2CCCO2)[C@H]1Cc1cccc(-c2cc(F)cc(F)c2)c1F` [Example 414, N-{(2S,3R,4S)-4-fluoro-1-[(2R)-oxolane-2-carbonyl]-2-[(2,3′,5′-trifluoro[1,1′-biphenyl]-3-yl)methyl]pyrrolidin-3-yl}ethanesulfonamide], the “OX2R agonist activity (3 μM, %)” value turned out to be 95%. Turning to `CC(C)(O)C(=O)N1C[C@H](F)[C@H](NS(C)(=O)=O)[C@@H]1Cc1cccc(-c2cccc(Cl)c2F)c1F` [Example 389, N-[(2S,3R,4S)-2-[(3′-chloro-2,2′-difluoro[1,1′-biphenyl]-3-yl)methyl]-4-fluoro-1-(2-hydroxy-2-methylpropanoyl)pyrrolidin-3-yl]methanesulfonamide], the “OX2R agonist activity (3 μM, %)” value is on record as 89%. The figure for `Cc1ccc(F)c(-c2cccc(C[C@H]3[C@@H](NS(=O)(=O)C4CC4)[C@@H](F)CN3C(=O)C3CCO3)c2F)c1` (stereo partly drawn) [Example 488, N-[(2S,3R,4S)-2-[(2,2′-difluoro-5′-methyl[1,1′-biphenyl]-3-yl)methyl]-4-fluoro-1-(oxetane-2-carobnyl)pyrrolidin-3-yl]cycloproapnesulfonamide] is 95%; for `CN(C)C(=O)N1CC(F)(F)[C@H](NS(=O)(=O)C2CC2)[C@@H]1Cc1cccc(-c2cccc(F)c2)c1F` [Example 523, (2S,3R)-3-[(cyclopropanesulfonyl)amino]-2-[(2,3′-difluoro[1,1′-biphenyl]-3-yl)methyl]-4,4-difluoro-N,N-dimethylpyrrolidine-1-carboxamide] it is 86%. With `CC(C)(O)C(=O)N1CC(F)(F)[C@H](NS(C)(=O)=O)[C@@H]1Cc1cccc(-c2cccc(F)c2)c1F` [Example 7, N-[(2S,3R)-2-[(2,3′-difluoro[1,1′-biphenyl]-3-yl)methyl]-4,4-difluoro-1-(2-hydroxy-2-methylpropanoyl)pyrrolidin-3-yl]methanesulfonamide], the “OX2R agonist activity (3 μM, %)” value is on record as 101%. Regarding `CS(=O)(=O)N[C@@H]1[C@H](Cc2cccc(-c3cc(F)ccc3F)c2F)N(C(=O)C2CC(F)C2)CC1(F)F` (stereo partly drawn) [Example 437, N-{(2S,3R)-4,4-difluoro-1-(3-fluorocyclobutane-1-carbonyl)-2-[(2,2′,5′-trifluoro[1,1′-biphenyl]-3-yl)methyl]pyrrolidin-3-yl}methanesulfonamide], the “OX2R agonist activity (3 μM, %)” value was found to be 84%.
